Publication PMC7867136, “Anti-Infective and Anti-Inflammatory Mode of Action of Peptide 19-2.5” (International Journal of Molecular Sciences, 2021)

System: Salmonella minnesota strain R60 bacteria on human mononuclear cells
Test: TNFα secretion by human mononuclear cells exposed to whole bacteria
Assay type: cell-based
Conditions: 10^6/ml Salmonella minnesota R60; antibiotics alone, or Pep19-2.5 added to ceftriaxone or ciprofloxacin; Figure 5
Description: Mononuclear cells (MNC) were isolated from heparinized blood samples obtained from healthy donors as described previously [1, 24]. […] For stimulation, 200 μL MNC (1 × 10^6 cells) in RPMI medium supplemented with PS/Glu2% (penicillin/streptomycin/glutamine, Biochrome, Berlin, Germany) plus AB serum (4%) was transferred into the wells of a 96-well culture plate.
The formulations to be tested for stimulation were preincubated for 30 min at 37 °C and added to the cultures at 20 μL per well. The cultures were incubated for 4 h at 37 °C with 5% CO2. Supernatants were collected after centrifugation of the culture plates for 10 min at 400× g and stored at 20 °C until immunological determination of tumor necrosis factor alpha (TNF-α), carried out with a sandwich enzyme-linked immunosorbent assay (ELISA) using a monoclonal antibody against TNF (BD Biosciences, Heidelberg, Germany) as described previously in detail [1]. In the case of the stimulation by the TNFα receptor, interleukin-8 in the supernatants was determined immunologically.

CO/N=C(\C(=O)N[C@@H]1C(=O)N2C(C(=O)O)=C(CSc3nc(=O)c(=O)[nH]n3C)CS[C@H]12)c1csc(N)n1 [ceftriaxone]
Influence on TNFα release from hMNC exposed to whole bacteria: only marginally influence the cytokine release
